# Numbered stars: 1 amine (or outer) side, 2 acyl side, 3 side chain; on linkers, the order of the positions; unused ones are H or OH. Bridge positions count the residues as written; N and C are the ends. Square brackets hold non-standard residues; d marks the D form. Peptide text beside a SMILES is read from it. X1 = CC(C)CCCCCCCCC[C@H](CC(=O)[*:1])O[*:2]
# Experiments:
# [1] = Dispersion / precipitation in ethanol; assay type: physicochemical; conditions: room temperature
# Experimental: DLS can be used to measure the size and size distribution of the ethanol solutions. A suitable apparatus is an ALV DLS/SLS-5000 spectrometer/goniometer (ALV-Laser GmbH, Langen, Germany). The light source for the experiments is an Argon Ion laser of wavelength 514.5 nm (Coherent, Calif.). Light scattered by the sample is detected at an angle of 90° from the transmitted beam, where the effects of reflection are minimized. The sample cell is placed in a toluene bath maintained at a temperature of 25° C.
# HIV-1 (strain NL4-3) = conditions: pretreatment of virus; cited from earlier work
# HSV-1 and HSV-2 strains = conditions: cultured cells; cited from earlier work
# NIH 3T3 fibroblasts = conditions: 30% ethanol in 10% FBS DMEM for 10 seconds
# [2] = tested on: viruses susceptible to its action; conditions: medium containing 5% fetal calf serum (FCS); cited from earlier work
structure (smiles),measurement,setting,value
"CCCCCCCCCCCCCCCC(=O)OC[C@H](COP(=O)([O-])OCC[N+](C)(C)C)OC(=O)CCCCCCCCCCCCCCC [DPPC, dipalmitoyl phosphatidyl choline]",concentration successfully dispersed in ethanol before sedimentation of aggregates,[1],up to 100 mg/mL
"CCCCCCCCCCCCOS(=O)(=O)[O-].[Na+] [SLS, sodium lauryl sulfate]",infectivity of HIV-1 to 1G5 cells after pretreatment,HIV-1 (strain NL4-3),reduced its infectivity
same,inhibition of infectivities of various HSV-1 and HSV-2 strains,HSV-1 and HSV-2 strains,potent inhibitors
CCO [ethanol],cell death after exposure (CMFDA staining),NIH 3T3 fibroblasts,insufficient to cause cell death
CC(C)CCCCCCCCC[C@@H]1CC(=O)N[C@@H](CCC(=O)O)C(=O)N[C@@H](CC(C)C)C(=O)N[C@H](CC(C)C)C(=O)N[C@@H](C(C)C)C(=O)N[C@@H](CC(=O)O)C(=O)N[C@H](CC(C)C)C(=O)N[C@@H](CC(C)C)C(=O)O1 [surfactin] (EL[dL]VD[dL]L; linker N-C via X1),concentration at which active,[2],25 µM
